{"source": "patent US6833478B2", "about": "(priority 2001, dated 2004)", "test": "Volume of water needed to dissolve", "type": "physicochemical", "conditions": "1 mmole (782 mg)", "from_the_text": "Evidently, dinitramide ion quenches the fluorescence of protonated quinine.", "note": "Counter-ions that a name gives are not always drawn.", "data": [{"smiles": "C=C[C@H]1C[N@@]2CC[C@H]1C[C@H]2[C@H](O)c1ccnc2ccc(OC)cc12", "note": "[quinine sulfate]", "values": [{"measurement": "water required to dissolve", "result": 900, "unit": "mL"}]}]}
